Measurements from patent US6906094B2, “1,2,4-tribsubstituted benzenes as inhibitors of 15-lipoxygenase” (Warner-Lambert Company, priority 2000, dated 2005).

Tests used:
[1] = molecular target: T1, rabbit reticulocyte 15-LO (Oryctolagus cuniculus, UniProt P12530); assay: Rabbit Reticulocyte 15-LO Assay (H15LO); type: biochemical; details: 2 U rabbit reticulocyte 15-LO, 174 μM linoleic acid, 15 minutes at 4° C., 13-HODE quantitated
T1 construct: 15-LO is obtained from phenylhydrazine-treated rabbits and purified according to the method of Rapoport; from tissue; host or cells: reticulocytes of phenylhydrazine-treated rabbits
T1 sequence (P12530 1-663): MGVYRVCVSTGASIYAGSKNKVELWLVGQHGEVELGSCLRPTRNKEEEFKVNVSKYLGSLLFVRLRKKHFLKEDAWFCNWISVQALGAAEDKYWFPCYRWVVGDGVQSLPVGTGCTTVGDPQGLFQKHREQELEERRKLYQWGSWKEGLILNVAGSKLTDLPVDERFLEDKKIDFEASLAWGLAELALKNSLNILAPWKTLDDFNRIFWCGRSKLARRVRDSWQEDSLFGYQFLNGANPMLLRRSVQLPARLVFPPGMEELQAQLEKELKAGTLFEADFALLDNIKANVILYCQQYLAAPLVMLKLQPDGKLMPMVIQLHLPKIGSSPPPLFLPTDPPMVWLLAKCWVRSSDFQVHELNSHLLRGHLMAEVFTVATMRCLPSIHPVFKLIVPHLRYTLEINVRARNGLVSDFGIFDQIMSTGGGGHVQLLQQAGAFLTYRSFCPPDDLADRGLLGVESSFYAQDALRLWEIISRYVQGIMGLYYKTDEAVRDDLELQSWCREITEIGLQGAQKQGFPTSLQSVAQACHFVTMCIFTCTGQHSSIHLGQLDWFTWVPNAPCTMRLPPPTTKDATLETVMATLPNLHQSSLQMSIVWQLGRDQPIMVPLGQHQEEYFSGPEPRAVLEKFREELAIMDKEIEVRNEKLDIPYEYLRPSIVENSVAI
Method in brief: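 Rabbit reticulocyte 15-LO purified from phenylhydrazine-treated rabbits; 2 U enzyme incubated with 174 μM linoleic acid and test compound for 15 min at 4° C in PBS with 0.2% sodium cholate. Reaction stopped with mobile phase and triethyl phosphite; 13-HODE product quantitated by peak area against an authentic 13-HODE standard curve.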

human 15-LO = molecular target: T2, human 15-LO (Homo sapiens, UniProt P16050); assay: Human Lysate 15-LO Assay (HUM15LO); type: biochemical; details: recombinant human 15-LO, 174 μM linoleic acid, 15 minutes at 4° C., 13-HODE quantitated
T2 construct: made in house; host or cells: Sf9 insect cells (baculovirus, Bac-to-Bac)
T2 sequence (P16050 1-662): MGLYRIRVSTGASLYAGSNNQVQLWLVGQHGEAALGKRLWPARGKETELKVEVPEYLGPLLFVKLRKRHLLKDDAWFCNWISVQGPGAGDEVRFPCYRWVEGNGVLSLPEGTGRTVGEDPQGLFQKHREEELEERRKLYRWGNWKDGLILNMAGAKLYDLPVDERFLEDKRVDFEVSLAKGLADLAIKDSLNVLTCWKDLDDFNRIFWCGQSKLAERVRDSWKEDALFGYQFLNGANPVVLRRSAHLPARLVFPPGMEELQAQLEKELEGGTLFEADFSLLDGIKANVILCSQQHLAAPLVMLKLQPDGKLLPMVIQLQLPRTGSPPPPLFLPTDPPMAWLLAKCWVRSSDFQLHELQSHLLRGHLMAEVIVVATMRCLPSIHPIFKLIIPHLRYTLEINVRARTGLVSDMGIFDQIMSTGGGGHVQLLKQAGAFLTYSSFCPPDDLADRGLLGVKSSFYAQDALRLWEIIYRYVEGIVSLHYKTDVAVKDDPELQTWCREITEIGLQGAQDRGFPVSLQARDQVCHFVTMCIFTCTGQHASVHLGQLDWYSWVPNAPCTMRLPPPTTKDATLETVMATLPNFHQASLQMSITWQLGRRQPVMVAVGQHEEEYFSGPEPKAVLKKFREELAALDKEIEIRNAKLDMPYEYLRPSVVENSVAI
Method in brief: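 Baculovirus-expressed recombinant enzyme incubated with compound and 174 μM linoleic acid in PBS with 0.2% sodium cholate, 15 min at 4° C. 13-HODE product quantitated against an authentic standard curve. Percent inhibition derived relative to a compound-free control reaction.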

Compound	IC50 [1]	melting point	IC50 (human 15-LO)
CCOCCOC(=O)NS(=O)(=O)Nc1cc(-c2cc3cc(F)c(F)cc3[nH]2)ccc1OC [Example 47, Carbamic Acid, [[[5-(5,6-difluoro-IH-indol-2-yl)-2-methoxyphenyl]-amino]sulfonyl]-, 2-ethoxyethyl ester]	44 nM	178 to 181 °C	54 nM
COc1ccc(-c2cc3cc(F)c(F)cc3[nH]2)cc1NS(=O)(=O)NC(=O)OCCCOCc1ccccc1 [Example 49, Carbamic Acid, [[[5-(5,6-difluoro-IH-indol-2-yl)-2-methoxyphenyl]-amino]sulfonyl]-3-(phenylmethoxy)propyl ester]	5 nM	166 to 168 °C	15 nM
COc1ccc(C(=O)Nc2ccc(F)c(F)c2)cc1NS(=O)(=O)NC(=O)OCCCOCc1ccccc1 [Example 50, Carbamic Acid, [[[5-[[(3,4-difluorophenyl)amino]carbonyl]-2-methoxyphenyl]amino]sulfonyl]-, 3-(phenylmethoxy)propyl ester]	18 nM	178 to 179 °C	65 nM
CCCCCCOC(=O)NS(=O)(=O)Nc1cc(-c2cc3cc(F)c(F)cc3[nH]2)ccc1OC [Example 51, Carbamic Acid, [[[5-(5,6-difluoro-IH-indo-2yl)-methoxyphenyl]amino]-sulfonyl]-hexyl ester]	2 nM	186 to 188 °C	12 nM
CCCCCCOC(=O)NS(=O)(=O)Nc1cc(C(=O)Nc2ccc(F)c(F)c2)ccc1OC [Example 52, Carbamic Acid, [[[5-[[(3,4-difluorophenyl)amino]carbonyl]-2methoxyphenyl]amino]sulfonyl]-, Hexyl ester]	5 nM	175 to 178 °C	39 nM

Next, values leading:

IC50 [1]	melting point	IC50 (human 15-LO)	Compound
10 nM	177 to 180 °C	12 nM	COc1ccc(-c2cc3cc(F)c(F)cc3[nH]2)cc1NS(N)(=O)=O [Example 54, Sulfamide, [5-(5,6-difluoro-IH-indol-2-yl)-2-methoxyphenyl]]
19 nM	167 to 170 °C	29 nM	COc1ccc(C(=O)Nc2ccc(F)c(F)c2)cc1NS(N)(=O)=O [Example 55, Benzamide, 3-[(aminosulfonyl)amino]-N-(3,4-difluorophenyl)-4-methoxy]
13 nM	193 to 196 °C	39 nM	COc1ccc(C(=O)Nc2ccc(F)c(F)c2)cc1NS(=O)(=O)NC(=O)Nc1cccc(Cl)c1 [Example 61, Benzamide, 3-[[[[[(3-chlorophenyl)amino]carbonyl]amino]sulfonyl]amino]-N-(3,4-difluorophenyl)-4-methoxy]
